Experimental data taken from patent US5609749A, “Electrochemical assay method with novel p-phenylenediamine compound” (Mochida Pharmaceutical Co., Ltd., priority 1993, dated 1997).
Where a name gives a salt, the structure may show the parent alone.

Assays:
[1] = Dry chemistry type chips: filter paper impregnated with mediator solution and dried on an electrode; settings: mediator dried on cellulose or glass filter paper, dissolved by liquid sample
From the text: In addition, the present inventors have attempted to prepare a dry chemistry type chips by impregnating a piece of cellulose filter paper or glass filter paper with a solution of HQ, PPD, TMPD or TEPD and drying the resulting piece on an electrode (by freeze-drying, vacuum drying, air-drying or the like) or arranging it on an electrode after drying so that the impregnated electron mediator can dissolve in a liquid sample at the time of measurement.

[2] = biological target: T1, Glucose oxidase (GOD) (Aspergillus niger, UniProt P13006); assay: Electron transfer activity 1: GOD-glucose-compound, current at +300 mV; type: biochemical; settings: +300 mV vs Ag/AgCl, pH 6.0
T1 construct: purchased Boehringer-Mannheim
Protocol: Measurement of electron transfer activities of TEPD, TCPD, THEPD, TDHPD, HTEPD, N,N'-BHPD, N,N-BHDPD, N,N'-BHDPD, and p-phenylenediamine derivatives having substituted amino group by reacting p-phenylenediamine with propyleneoxide--1
Glucose oxidase (GOD, manufactured by Boehringer-Mannheim) was dissolved in 0.1M phosphate buffer (pH 6.0) containing 0.1M NaCl to prepare 0M and 4.0×10^-4 M GOD solutions. Also, glucose (manufactured by Junsei Kagaku) was dissolved in the same buffer to prepare a 1.5M solution. In the same manner, each of the TEPD, TCPD, THEPD, TDHPD, HTEPD, N,N-BHDPD, N,N'-BHPD, N,N'-BHDPD, and p-phenylenediamine derivatives having substituted amino group by reacting p-phenylenediamine with propyleneoxide obtained in Synthesis Examples 1 to 9 was dissolved in the same buffer to prepare a 5.0×10^-3 M solution.
(§1) Each of these solutions was mixed in 0.1M phosphate buffer (pH 6.0) containing 0.1M NaCl in the following mixing ratio just before the measurement to prepare solutions of the following compositions A and B, and current was measured continuously in the presence (composition A) or absence (composition B) of GOD.
Using the same apparatus of Test Example 2, electric current was measured in the presence (composition A) or absence (composition B) of GOD for 10 minutes under application of potential of +300 mV (vs Ag/AgCl) to the working electrode.

[3] = biological target: T2, Horseradish peroxidase (HRPO) (Armoracia rusticana, UniProt P00433); assay: Electron transfer activity 2: HRPO-hydrogen peroxide-compound, current at -80 mV or -150 mV; type: biochemical; settings: -80 mV or -150 mV vs Ag/AgCl, pH 6.0
T2 construct: purchased TOYOBO
T2 sequence (P00433 31-338 limits assumed): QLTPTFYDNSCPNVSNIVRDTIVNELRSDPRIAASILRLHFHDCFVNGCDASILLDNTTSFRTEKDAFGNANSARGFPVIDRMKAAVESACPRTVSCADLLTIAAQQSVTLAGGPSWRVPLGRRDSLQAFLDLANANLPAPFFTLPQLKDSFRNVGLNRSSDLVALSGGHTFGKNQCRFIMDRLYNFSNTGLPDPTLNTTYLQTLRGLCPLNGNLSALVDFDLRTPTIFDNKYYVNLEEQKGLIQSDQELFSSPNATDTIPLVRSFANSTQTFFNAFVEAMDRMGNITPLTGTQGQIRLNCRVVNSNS
Protocol: Measurement of electron transfer activities of TCPD, THEPD, TDHPD, HTEPD, N,N-BHDPD, N,N'-BHPD, N,N'-BHDPD, and p-phenylenediamine derivatives having substituted amino group by reacting p-phenylenediamine with propyleneoxide--2
Horseradish peroxidase (HRPO, manufactured by TOYOBO) was dissolved in 0.1M phosphate buffer (pH 6.0) containing 0.1M NaCl to prepare 0M and 5.0×10^-7 M HRPO solutions. Also, hydrogen peroxide (manufactured by Wako Pure Chemical Industries) was dissolved in the same buffer to prepare a 1.0×10^-1 M solution. In the same manner, each of the TCPD, THEPD, TDHPD, HTEPD, N,N-BHDPD, N,N'-BHPD, N,N'-BHDPD, and p-phenylenediamine derivatives having substituted amino group by reacting p-phenylenediamine with propyleneoxide obtained in Synthesis Examples 1 to 9 was dissolved in the same buffer to prepare a 5.0×10^-3 M solution.
as §1, with “B, and electric current was” for “B, and current was”, “B) of HRPO.” for “B) of GOD.”
Using the same apparatus of Test Example 2, electric current was measured in the presence (composition A) or absence (composition B) of HRPO for 5 or 10 minutes after application of potential of -80 mV (vs Ag/AgCl, the same shall apply hereinafter) in the case of TEPD, THEPD, and TDHPD, or -150 mV in the case of TCPD, HTEPD, N,N-BHDPD, N,N'-BHPD, N,N'-BHDPD, and p-phenylenediamine derivatives having substituted amino group by reacting p-phenylenediamine with propyleneoxide.

[4] = Current response of electron mediators in buffer solution and in the presence of blood, urine; settings: for current response: in a buffer solution; for response in the presence of blood, urine and the like: interfering substances in blood
From the text: (§2) Of these oxidation-reduction enzymes, glucose oxidase (GOD) is used in enzyme electrodes for the measurement of blood glucose level and horseradish peroxidase (HRPO) is used as a label enzyme in specific binding assays such as DNA hybridization, immunoassay and the like. […] However, these electron mediators were not able to show stable and reproducible response in the presence of blood, urine and the like because of the interfering substances contained therein.

[5] = Measurement of vapor pressures (gas flow method); type: physicochemical; settings: for vapor pressure lower than that of TEPD / vapor pressure: at 25° C.; for vapor pressure: gas flow method; for property in drying (freeze-drying, vacuum drying, air-drying) and stability of dried states: compared with PPD, TMPD and TEPD, concluded from vapor pressures
Protocol: Measurement of vapor pressures of p-phenylenediamine(PPD), N,N,N',N'-tetramethyl-p-phenylenediamine (TMPD), TEPD, TCPD, THEPD and TDHPD
The PPD(manufactured by Wakoh Junyaku K.K), TMPD (manufactured by Tokyo Kasei K.K), further, TEPD, TCPD, THEPD and TDHPO obtained in the course of the procedures of Synthesis Examples 1 to 4 were checked for their vapor pressures.
Vapor densities (amount of evaporation/volume) of the solid samples (PPD, TMPD, TEPD, TCPD, THEPD and TDHPD) were measured by contacting each sample heated to a predetermined temperature with a stream of carrier gas (nitrogen) and saturating the sample with vapor, and vapor pressures of TEPD and THEPD were calculated from the data on an assumption that the vapor follows the law of ideal gas (gas flow method). The vapor density was calculated by measuring evaporation rate (loss rate) of each sample using an electric balance, and the carrier gas flow rate using a flow meter.
The vapor pressure was calculated from the vapor density based on the following formula.
In the above formula, P represents vapor pressure (mmHg), k represents evaporation rate (mg/min), v represents carrier gas flow rate (ml/min), k/v represents vapor density (mg/ml), M represents molecular weight of each sample, π represents pressure of the system (mmHg) and V represents molar volume of carrier gas (l/mol).

[6] = biological target: glucose oxidase (Aspergillus niger, UniProt P13006); assay: Current response in a buffer with electron mediator (inventors' experiments); type: biochemical; settings: compared with conventional electron mediators (ferrocene derivatives, inorganic ions, metal complexes)
From the text: as §2

[7] = biological target: T3, horseradish peroxidase (Armoracia rusticana, UniProt P00433); assay: as above; type: biochemical; settings: compared with conventional electron mediators (ferrocene derivatives, inorganic ions, metal complexes)
T3 sequence (P00433 31-338 limits assumed): T2 sequence (P00433 31-338 limits assumed)
From the text: as §2

T1 sequence (P13006 17-605): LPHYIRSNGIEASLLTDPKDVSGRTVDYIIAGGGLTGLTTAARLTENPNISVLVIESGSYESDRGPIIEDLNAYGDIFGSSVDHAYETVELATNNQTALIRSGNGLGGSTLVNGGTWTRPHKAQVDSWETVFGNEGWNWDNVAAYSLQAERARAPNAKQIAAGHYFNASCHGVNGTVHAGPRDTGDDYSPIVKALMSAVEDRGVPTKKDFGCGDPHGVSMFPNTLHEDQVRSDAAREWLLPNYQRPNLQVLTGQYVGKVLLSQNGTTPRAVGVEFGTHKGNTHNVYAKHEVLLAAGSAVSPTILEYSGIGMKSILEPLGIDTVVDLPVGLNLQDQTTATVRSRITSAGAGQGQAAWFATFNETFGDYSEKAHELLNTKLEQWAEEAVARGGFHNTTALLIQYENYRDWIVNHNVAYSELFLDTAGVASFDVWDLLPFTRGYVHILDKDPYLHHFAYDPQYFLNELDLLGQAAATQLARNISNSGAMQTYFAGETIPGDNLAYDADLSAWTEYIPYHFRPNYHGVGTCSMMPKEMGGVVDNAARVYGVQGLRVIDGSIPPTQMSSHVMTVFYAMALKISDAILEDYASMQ
Chain of glucose oxidase (P13006 17-605): as above

Molecule | current response and characteristics of dry chemistry type chips [1] | function as electron mediator between GOD and the electrode [2] | function as electron mediator between HRPO and the electrode [3] | other results
Oc1ccc(O)cc1 [HQ, hydroquinone] | low current response and extremely poor characteristics | – | – | –
CCN(CC)c1ccc(N(CC)CCO)cc1 [HTEPD, N-2'-hydroxyethyl-,N,N',N'-triethyl-p-phenylenediamine dihydrochloride] | – | function as a reversible electron mediator between GOD and the electrode | function as a reversible electron mediator between HRPO and the electrode | –
CCN(CCO)c1ccc(N(CC)CCO)cc1.Cl.Cl [N,N'-BHDPD, N,N'-bis-(2'-hydroxyethyl)-N,N'-diethyl-p-phenylenediamine dihydrochloride] | – | function as a reversible electron mediator between GOD and the electrode | function as a reversible electron mediator between HRPO and the electrode | –
OCCNc1ccc(NCCO)cc1 [N,N'-BHPD, N,N'-bis-(2'-hydroxyethyl)-p-phenylenediamine] | – | function as a reversible electron mediator between GOD and the electrode | function as a reversible electron mediator between HRPO and the electrode | –
CCN(CC)c1ccc(N(CCO)CCO)cc1.Cl.Cl [N,N-BHDPD, N,N-bis-(2'-hydroxyethyl)-N',N'-diethyl-p-phenylenediamine dihydrochloride] | – | function as a reversible electron mediator between GOD and the electrode | function as a reversible electron mediator between HRPO and the electrode | –
Nc1ccc(N)cc1 [PPD, p-phenylenediamine] | low current response and extremely poor characteristics | – | – | current response [4]: excellent current response; response in the presence of blood, urine and the like [4]: interference
O=C(O)CN(CC(=O)O)c1ccc(N(CC(=O)O)CC(=O)O)cc1 [TCPD, N,N,N',N'-tetrakiscarboxymethyl-p-phenylenediamine] | – | function as a reversible electron mediator between GOD and the electrode | function as a reversible electron mediator between HRPO and the electrode | vapor pressure lower than that of TEPD [5]: about 50,000 times; vapor pressure [5]: 8.7×10^-9 mmHg; property in drying (freeze-drying, vacuum drying, air-drying) and stability of dried states [5]: superior to those of PPD, TMPD and TEPD
Cl.Cl.OCC(O)CN(CC(O)CO)c1ccc(N(CC(O)CO)CC(O)CO)cc1 (stereo not drawn) [TDHPD, N,N,N',N'-tetrakis-(2',3'-dihydroxypropyl)-p-phenylenediamine dihydrochloride] | – | function as a reversible electron mediator between GOD and the electrode | function as a reversible electron mediator between HRPO and the electrode | vapor pressure lower than that of TEPD [5]: about 420,000 times; vapor pressure [5]: 1.0×10^-9 mmHg; property in drying (freeze-drying, vacuum drying, air-drying) and stability of dried states [5]: superior to those of PPD, TMPD and TEPD
CN(C)c1ccc(N(C)C)cc1 [TMPD, N,N,N',N'-tetramethyl-p-phenylenediamine] | low current response and extremely poor characteristics | – | – | current response [4]: excellent current response; response in the presence of blood, urine and the like [4]: interference
hydroquinone (HQ)/benzoquinone (BQ) | – | – | – | current response [6]: superior current response; current response [7]: superior current response
